Source: PMC4695389, “Non-classical amine recognition evolved in a large clade of olfactory receptors” (eLife, 2015)
Numbering of substitutions follows the chain as printed. Several values for one entry are separate records, joined by “and”; a condition that tells them apart may be missing. Identical values can stand only once. Entries after “also recorded” stand apart in the source; their conditions may differ. Like-named read-outs stand apart in the source and are kept apart here.

Legend:
zebrafish TAAR13c = molecular target: T1, zebrafish TAAR13c (Danio rerio, UniProt Q5QNP2); assay: cell-based
T1 construct: expressed in transfected cells; host or cells: HEK-293
T1 sequence (Q5QNP2 1-341): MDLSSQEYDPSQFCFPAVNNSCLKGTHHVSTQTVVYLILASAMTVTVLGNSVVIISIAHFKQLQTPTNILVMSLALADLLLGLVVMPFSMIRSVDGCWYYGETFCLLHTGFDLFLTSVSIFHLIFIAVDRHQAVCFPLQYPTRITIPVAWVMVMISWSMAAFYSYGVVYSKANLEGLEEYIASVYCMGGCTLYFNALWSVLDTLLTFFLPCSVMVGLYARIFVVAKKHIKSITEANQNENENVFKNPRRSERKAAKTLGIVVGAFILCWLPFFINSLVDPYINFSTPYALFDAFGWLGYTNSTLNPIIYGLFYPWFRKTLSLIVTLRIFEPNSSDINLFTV

TAAR12i = molecular target: T2, TAAR12i (Danio rerio, UniProt Q5QNN0, F195V/V105Y/V8A); assay: Cre-Seap reporter gene assay, TAAR12i in Hana3A cells; format: cell-based, zebrafish
T2 sequence (Q5QNN0 1-340 V8A/V105Y/F195V): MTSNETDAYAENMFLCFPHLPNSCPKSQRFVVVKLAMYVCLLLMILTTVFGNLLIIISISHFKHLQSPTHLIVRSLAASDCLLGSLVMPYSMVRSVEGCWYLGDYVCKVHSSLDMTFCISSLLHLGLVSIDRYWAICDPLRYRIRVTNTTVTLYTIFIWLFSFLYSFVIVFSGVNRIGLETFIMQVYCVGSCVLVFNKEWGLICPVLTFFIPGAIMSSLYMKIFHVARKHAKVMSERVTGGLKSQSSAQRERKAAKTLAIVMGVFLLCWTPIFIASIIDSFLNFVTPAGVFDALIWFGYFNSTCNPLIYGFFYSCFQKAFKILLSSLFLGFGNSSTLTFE

zebrafish TAAR10a = molecular target: T3, zebrafish TAAR10a (Danio rerio, UniProt Q5QNP6, I156V/V182I); assay: cell-based; conditions: HEK-293 cells, Cre-Seap reporter
T3 sequence (Q5QNP6 1-336 I156V/V182I): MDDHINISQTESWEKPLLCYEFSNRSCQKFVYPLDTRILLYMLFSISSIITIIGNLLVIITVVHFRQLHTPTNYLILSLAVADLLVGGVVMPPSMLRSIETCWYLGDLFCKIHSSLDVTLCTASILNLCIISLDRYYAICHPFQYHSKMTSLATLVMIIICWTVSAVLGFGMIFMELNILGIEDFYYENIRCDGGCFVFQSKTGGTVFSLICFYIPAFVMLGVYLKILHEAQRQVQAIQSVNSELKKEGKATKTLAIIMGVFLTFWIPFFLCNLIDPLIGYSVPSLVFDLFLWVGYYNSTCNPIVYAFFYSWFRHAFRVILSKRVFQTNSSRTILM

goldfish = test system: goldfish; parameters: method as in Rolen, et al., 2003; Hara, 2006; conditions: ref Rolen, et al., 2003, Hara, 2006; cited from earlier work
zebrafish TAAR13e = molecular target: T4, zebrafish TAAR13e (Danio rerio, UniProt Q5QNP8, I215V/V266I); assay: cell-based; conditions: HEK-293 cells, Cre-Seap reporter
T4 sequence (Q5QNP8 1-341 I215V/V266I): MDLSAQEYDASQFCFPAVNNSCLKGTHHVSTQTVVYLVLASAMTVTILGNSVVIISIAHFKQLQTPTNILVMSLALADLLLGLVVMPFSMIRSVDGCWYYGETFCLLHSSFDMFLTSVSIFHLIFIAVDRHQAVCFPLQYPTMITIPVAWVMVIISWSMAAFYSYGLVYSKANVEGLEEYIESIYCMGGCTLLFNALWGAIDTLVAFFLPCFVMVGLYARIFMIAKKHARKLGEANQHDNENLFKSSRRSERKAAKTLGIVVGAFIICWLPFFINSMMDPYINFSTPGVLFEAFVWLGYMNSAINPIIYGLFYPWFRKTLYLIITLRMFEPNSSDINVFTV

zebrafish TAAR14d = molecular target: T5, zebrafish TAAR14d (Danio rerio, UniProt U3JB35); assay: cell-based; conditions: HEK-293 cells, Cre-Seap reporter
T5 sequence (U3JB35 1-328): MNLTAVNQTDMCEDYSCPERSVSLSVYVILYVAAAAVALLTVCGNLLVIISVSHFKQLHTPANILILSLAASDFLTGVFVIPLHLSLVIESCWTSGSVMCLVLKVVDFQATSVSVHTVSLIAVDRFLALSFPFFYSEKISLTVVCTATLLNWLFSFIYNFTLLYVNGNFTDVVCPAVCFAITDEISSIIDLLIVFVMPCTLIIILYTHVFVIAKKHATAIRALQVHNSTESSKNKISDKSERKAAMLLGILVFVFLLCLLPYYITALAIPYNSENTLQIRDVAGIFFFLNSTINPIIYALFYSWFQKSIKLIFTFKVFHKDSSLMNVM

zebrafish TAAR13a = zebrafish TAAR13a (Danio rerio, UniProt Q5QNP9, F294L/F316L/I267M/N226K/T142R); assay: cell-based; conditions: HEK-293 cells, Cre-Seap reporter
Sequence of zebrafish TAAR13a (Q5QNP9 1-341 T142R/N226K/I267M/F294L/F316L): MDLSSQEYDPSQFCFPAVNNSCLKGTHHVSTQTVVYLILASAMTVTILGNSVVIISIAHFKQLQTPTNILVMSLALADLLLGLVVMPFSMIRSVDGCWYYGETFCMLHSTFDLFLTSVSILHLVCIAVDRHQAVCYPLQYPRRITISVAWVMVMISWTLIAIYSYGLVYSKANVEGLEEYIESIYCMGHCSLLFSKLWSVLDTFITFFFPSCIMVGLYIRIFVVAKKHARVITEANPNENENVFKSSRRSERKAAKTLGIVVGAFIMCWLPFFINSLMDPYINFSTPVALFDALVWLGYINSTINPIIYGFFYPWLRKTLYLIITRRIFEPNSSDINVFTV

zebrafish TAAR13d = zebrafish TAAR13d (Danio rerio, UniProt Q5QNQ1, I38V/T66P/V128I/V187I); assay: cell-based; conditions: for EC50: HEK-293 cells, Cre-Seap reporter
Sequence of zebrafish TAAR13d (Q5QNQ1 entry or part of it I38V/T66P/V128I/V187I): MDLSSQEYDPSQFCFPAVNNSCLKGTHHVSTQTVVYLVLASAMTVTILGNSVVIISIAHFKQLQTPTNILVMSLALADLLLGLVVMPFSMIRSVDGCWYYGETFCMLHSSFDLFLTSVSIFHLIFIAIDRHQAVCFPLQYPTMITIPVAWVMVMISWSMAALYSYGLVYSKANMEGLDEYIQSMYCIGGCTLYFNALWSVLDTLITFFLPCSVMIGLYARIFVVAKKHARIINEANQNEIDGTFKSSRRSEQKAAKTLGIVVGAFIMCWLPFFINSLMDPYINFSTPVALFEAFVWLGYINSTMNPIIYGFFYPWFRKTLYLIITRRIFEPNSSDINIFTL

TAAR16c D^5.42A mutant = assay: Cre-Seap reporter gene assay, TAAR16c D^5.42A mutant; format: cell-based, zebrafish
TAAR13c^D112A = molecular target: T6, TAAR13c^D112A (Danio rerio, UniProt Q5QNP2, D112A); format: cell-based; conditions: any concentration tested, up to 1 mM
T6 construct: expressed in transfected cells; host or cells: HEK-293
T6 sequence (Q5QNP2 1-341 D112A): T1 sequence (Q5QNP2 1-341) with D112A

zebrafish = test system: zebrafish; parameters: method as in Hussain et al., 2013; conditions: ref Hussain et al., 2013; cited from earlier work
zebrafish TAAR16f = molecular target: T7, zebrafish TAAR16f (Danio rerio, UniProt A0AC58GNM0, L317F/N20S/N8I/T68S, form not given); format: cell-based; conditions: for EC50: HEK-293 cells, Cre-Seap reporter
T7 sequence (A0AC58GNM0 1-331 N8I/N20S/T68S/L317F): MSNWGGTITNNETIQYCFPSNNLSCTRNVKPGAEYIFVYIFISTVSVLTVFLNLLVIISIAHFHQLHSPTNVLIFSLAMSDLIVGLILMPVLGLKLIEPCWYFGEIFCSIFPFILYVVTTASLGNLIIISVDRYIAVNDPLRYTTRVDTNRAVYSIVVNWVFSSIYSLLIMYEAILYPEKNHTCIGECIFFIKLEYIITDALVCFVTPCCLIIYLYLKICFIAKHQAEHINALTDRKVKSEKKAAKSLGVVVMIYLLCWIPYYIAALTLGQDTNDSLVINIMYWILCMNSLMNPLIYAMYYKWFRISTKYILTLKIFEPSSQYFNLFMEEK

TAAR16f D^5.42A mutant = assay: Cre-Seap reporter gene assay, TAAR16f D^5.42A mutant; format: cell-based, zebrafish
zebrafish TAAR16c = zebrafish TAAR16c (Danio rerio, UniProt A0AC58H3H2, N266T); format: cell-based
Sequence of zebrafish TAAR16c (A0AC58H3H2 entry or part of it N266T): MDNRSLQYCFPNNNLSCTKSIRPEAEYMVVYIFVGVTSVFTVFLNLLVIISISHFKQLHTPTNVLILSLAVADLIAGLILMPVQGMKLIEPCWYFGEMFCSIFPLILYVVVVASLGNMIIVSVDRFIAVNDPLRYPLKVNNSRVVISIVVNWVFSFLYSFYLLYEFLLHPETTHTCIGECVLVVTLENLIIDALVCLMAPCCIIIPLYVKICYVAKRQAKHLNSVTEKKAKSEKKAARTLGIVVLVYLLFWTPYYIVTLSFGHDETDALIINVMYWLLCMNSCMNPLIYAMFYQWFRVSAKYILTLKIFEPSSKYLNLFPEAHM

TAAR10b = molecular target: T8, TAAR10b (Danio rerio, UniProt Q5QNN3, A166T/H113R/V182I/V259M); assay: Cre-Seap reporter gene assay, TAAR10b in Hana3A cells; format: cell-based, zebrafish
T8 sequence (Q5QNN3 1-336 H113R/A166T/V182I/V259M): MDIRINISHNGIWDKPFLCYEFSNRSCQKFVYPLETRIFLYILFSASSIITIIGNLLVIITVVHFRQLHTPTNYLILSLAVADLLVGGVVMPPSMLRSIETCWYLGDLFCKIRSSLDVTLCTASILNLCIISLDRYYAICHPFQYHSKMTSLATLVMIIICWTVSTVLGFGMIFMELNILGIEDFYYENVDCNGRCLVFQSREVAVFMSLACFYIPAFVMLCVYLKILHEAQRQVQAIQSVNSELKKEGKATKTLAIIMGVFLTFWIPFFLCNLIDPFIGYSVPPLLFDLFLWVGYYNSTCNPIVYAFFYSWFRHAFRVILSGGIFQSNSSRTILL

## COc1cc(CCN)ccc1O [3-methoxytyramine]
Zebrafish TAAR13c; any concentration tested
  activation of wild type TAAR13c: failed to activate
TAAR12i
  EC50: 100 µM

## COc1ccc2[nH]cc(CCN)c2c1 [5-methoxytryptamine]
Zebrafish TAAR10a; EC50, TAAR10a
  EC50: ~20 µM

## NCCCCN=C(N)N [Agmatine]
goldfish
  feeding-associated pecking behavior: increase feeding-associated pecking behavior
Zebrafish TAAR13e
  EC50: ~1 µM and 1 µM
Zebrafish TAAR14d
  EC50: ~100 µM and 100 µM

## NCCc1c[nH]cn1 [Histamine]
Zebrafish TAAR13a
  EC50: ~20 µM and 20 µM
Zebrafish TAAR13d
  EC50: ~7 µM

## CN1CCCCC1 [N-methylpiperidine]
TAAR16c D^5.42A mutant
  response of TAAR16c with charge-neutralizing mutation of Asp^5.42: completely eliminated responses

## NCCCCCN [cadaverine]
Zebrafish TAAR13c; HEK-293 cells, Cre-Seap reporter, read-out: EC50 (half maximal response), TAAR13c
  EC50: ~10 µM and 10 µM
goldfish
  feeding-associated pecking behavior: increase feeding-associated pecking behavior
TAAR13c^D112A
  activation of TAAR13c D112A mutant: abrogates cadaverine responsiveness; also recorded: failed to activate
zebrafish
  avoidance behavior: evoke avoidance behavior

## NCCCN [diaminopropane]
Zebrafish TAAR13d; compared with putrescine
  reduced sensitivity of TAAR13d relative to putrescine: ~ 3,000 fold

## CC(C)CCO [isoamyl alcohol]
Zebrafish TAAR16f
  detection by TAAR16f: failed to detect
  recognition by TAAR16f at 1 mM: not

## CC(C)CCN [isoamylamine]
Zebrafish TAAR16f; 1 mM
  recognition by TAAR16f at 1 mM: recognizes
Zebrafish TAAR16f
  EC50: ~200 µM
Zebrafish TAAR16f; listed as Isoamylamine
  EC50: 200 µM
TAAR16f D^5.42A mutant
  response of TAAR16f with charge-neutralizing mutation of Asp^5.42: completely eliminated responses

## C1CCNCC1 [piperidine]
Zebrafish TAAR16c
  agonism of TAAR16c: partial agonists

## NCCCCN [putrescine]
goldfish
  feeding-associated pecking behavior: increase feeding-associated pecking behavior
zebrafish
  avoidance behavior: evoke avoidance behavior
Zebrafish TAAR13d
  EC50: ~1 µM and 1 µM

## C1CCNC1 [pyrrolidine]
Zebrafish TAAR16c; any concentration tested
  agonism of TAAR16c: partial agonists

## NCCc1c[nH]c2ccc(O)cc12 [serotonin]
Zebrafish TAAR10a; read-out: EC50, TAAR10a
  EC50: ~0.5 µM and 0.5 µM

## C1CCOC1 [tetrahydrofuran]
Zebrafish TAAR16c
  agonism of TAAR16c: did not activate

## NCCc1c[nH]c2ccccc12 [tryptamine]
Zebrafish TAAR10a; read-out: EC50, TAAR10a
  EC50: ~70 µM
TAAR10b
  EC50: 50 µM
